This note sets out measurements from paper PMC12091851, “Replacing a Cereblon Ligand by a DDB1 and CUL4 Associated Factor 11 (DCAF11) Recruiter Converts a Selective Histone Deacetylase 6 PROTAC into a Pan‐Degrader” (Chemmedchem, 2025).

In one experiment the test system is HDAC1, 2, 4, and 6. The experiment can be described thus: Immunoblot HDAC isoform degradation in MM.1S, all tested isoforms. The format is cell-based, human. The settings on record: MM.1S cells, 10 μM, 24 h. The procedure: Figure 6 Examination of HDAC isoform degradation. MM.1S cells were treated with the indicated compounds (10 μM) or vehicle (DMSO) for 24 h. HDAC1, 2, 4, and 6 levels were analyzed by immunoblotting. (A) Representative images from a total of n=3 biological replicates.
2.5. Aqueous Stability Assay
For stability testing in aqueous solution, a 10-fold concentrated DMSO solution of the respective compounds was diluted in DPBS to generate a 10 µM concentration (final DMSO content of 10%).
Samples of the aqueous solutions were taken after 0, 24, 48, and 72 h at room temperature and the amounts of the parental compound and potential fragments were monitored by HPLC gradient A (see 3.1 General Information). The peak area of the 0 h sample was used for normalization. All compounds were tested in duplicates and GraphPad Prim was used for evaluation and data visualization.
The cell lysis was performed as descripted in 3.2. Simple Western Immunoassay. Samples were denatured by Laemmli 2× Concentrate (Catalog# S3401-10VL, Sigma-Aldrich) for 5 min at 95 °C, and […]
Bio-Rad, Hercules, CA, USA). […]
6.1 (Bio-Rad) for quantification. […]
In vitro inhibitory activities against HDAC1, 2 , and 6 were measured using a previously published protocol.[3] In vitro inhibitory activities against HDAC4 were measured using a previously published protocol with slight modifications. […]

The target in the next experiment is HDAC1 (Homo sapiens, UniProt Q13547). Put plainly: Simple Western immunoassay, HDAC1 levels in U-87MG cell lysates. The settings on record: 10 μM, 24 h. The arrangement: endogenous in cells; host or cells: MM.1S. It counts as cell-based. The procedure:
Figure S5. Analysis of HDAC1 and 6 degradation in U-87MG cells. Simple western immunoassay analysis of U-87MG cell lysates. The cells were treated with the indicated compound (10 µM) or vehicle (DMSO) for 24 h. Top: Quantification of HDAC levels, presented as mean ± standard deviation of n = 2 biological replicates; Significance compared to vehicle: ns = p≥0.05 and *** = p≤0.001. Bottom:
Representative images of n = 2 biological replicates.
(1 picture or pasted object on this page, not shown here)
2. Biological Experiments
No unexpected or unusually high safety hazards were encountered.
The human multiple myeloma cell line MM.1S (CRL-2974) was obtained from American Type Culture Collection (ATCC, Manassas, VA, USA). […]
Louis, MO, USA) according to manufacturer´s instructions. Protein content was determined by Pierce™ BCA Protein Assay Kit (Catalog# 23225, Thermo Fisher Scientific Inc.) according to manufacturer´s guidelines. […]
Fluorescence Separation 8x25 Capillary Cartridges (Catalog# SM-FL004-1, Protein Simple, Bio-Techne, Minneapolis, MN, USA) were used for separation and the Anti-Mouse Detection Module (Catalog# DM-002, Protein Simple) was used for detection with addition of 20x Anti-Rabbit HRP […]
Conjugate (Catalog# 043-426, Protein Simple) according to manufacturer´s instructions. […] Evaluation and quantification was performed with the compass software (6.2.0, Protein Simple). […]

HDAC1, sequence (Q13547 whole entry): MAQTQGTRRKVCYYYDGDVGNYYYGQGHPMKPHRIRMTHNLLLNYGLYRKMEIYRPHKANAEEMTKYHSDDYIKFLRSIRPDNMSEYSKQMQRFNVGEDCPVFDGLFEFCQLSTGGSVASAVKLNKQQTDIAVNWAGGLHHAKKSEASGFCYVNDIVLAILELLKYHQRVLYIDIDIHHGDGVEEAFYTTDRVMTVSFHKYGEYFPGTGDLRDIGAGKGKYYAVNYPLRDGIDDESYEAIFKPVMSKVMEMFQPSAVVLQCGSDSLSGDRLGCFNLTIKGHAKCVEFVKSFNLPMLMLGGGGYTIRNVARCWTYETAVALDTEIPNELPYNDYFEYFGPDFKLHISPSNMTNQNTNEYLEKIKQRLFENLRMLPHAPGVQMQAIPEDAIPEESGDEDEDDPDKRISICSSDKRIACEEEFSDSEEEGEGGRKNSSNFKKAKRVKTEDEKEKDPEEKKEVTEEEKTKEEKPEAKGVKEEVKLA

Turning to `O=C(CCCCCCNC(=O)c1ccc(NC(=O)CCCCCCCCCCCN(C(=O)CCl)C(C(=O)NCc2ccccc2)c2ccc(Cl)c(Cl)c2)cc1)NO` (stereo not drawn) [Compound 1j], the “Dmax, all four tested isoforms / other HDAC isoforms” value in the experiment on HDAC1, 2, 4, and 6 was 71–90%. Moreover, the “HDAC1 degradation in U-87MG cells” value at HDAC1 was “significant HDAC1 and 6 degradation”.
On to `O=C(CCCCCCNC(=O)c1ccc(N(C(=O)CCl)C(C(=O)NCc2ccccc2)c2ccc(Cl)c(Cl)c2)cc1)NO` (stereo not drawn) [Compound 2], for which the “HDAC1 degradation in U-87MG cells” value at HDAC1 is “significant degradation for HDAC1”.
